Assay [1] addresses T1, Somatostatin receptor type 3 (Homo sapiens, UniProt P32745). The assay can be described thus: Agonist activity at human sst3 receptor expressed in CCL39 cells after 5 hrs by luciferase reporter gene assay. Type of assay: functional, cell-based. In general terms: In a reporter assay the amount or activity of a reporter protein is the signal.
For assay [2], the target named is Somatostatin receptor type 5 (Homo sapiens, UniProt P35346). Briefly: Displacement of 125I-[LTT]-SRIF-28 from human sst5 receptor in HEK293 cells after 2 hrs by autoradiography. Type of assay: cell-based. On the technique in general: Displacement assays read how much labelled ligand stays bound in the presence of the test substance.
Somatostatin receptor type 5, sequence (P35346 whole entry): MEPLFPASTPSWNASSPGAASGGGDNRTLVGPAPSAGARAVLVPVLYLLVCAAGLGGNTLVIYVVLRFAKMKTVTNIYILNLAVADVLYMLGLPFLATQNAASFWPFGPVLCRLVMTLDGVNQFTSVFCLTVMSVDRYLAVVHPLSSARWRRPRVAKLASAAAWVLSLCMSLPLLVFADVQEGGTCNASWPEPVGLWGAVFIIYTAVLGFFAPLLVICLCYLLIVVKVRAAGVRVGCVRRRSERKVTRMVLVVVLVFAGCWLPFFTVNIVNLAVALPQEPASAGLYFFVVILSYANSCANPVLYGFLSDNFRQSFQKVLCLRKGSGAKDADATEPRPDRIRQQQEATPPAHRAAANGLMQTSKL
For assay [3], the target named is T1, Somatostatin receptor type 3. The assay can be described thus: Induction of sst3 receptor internalization in human HEK cells after 30 mins by immunofluorescence microscopy. Type of assay: cell-based. Particulars: HEK293.
For assay [4] the target is unchanged. The assay can be described thus: Induction of sst3 receptor internalization in human HEK cells at 10 uM after 30 mins by immunofluorescence microscopy. The assay is classed as cell-based. Particulars: HEK293.
For assay [5] the target is unchanged. The assay can be described thus: Partial antagonist activity at human sst3 receptor expressed in CCL39 cells assessed as inhibition of somatostatin-induced luciferase reporter gene expression at 10 uM after 5 hrs. Type of assay: functional, cell-based.
The target in assay [6] is Somatostatin receptor type 2 (Homo sapiens, UniProt P30874). The assay can be described thus: Displacement of 125I-[LTT]-SRIF-28 from human sst2 receptor in CCL39 cells after 2 hrs by autoradiography. The assay is classed as cell-based.
Somatostatin receptor type 2, sequence (P30874 whole entry): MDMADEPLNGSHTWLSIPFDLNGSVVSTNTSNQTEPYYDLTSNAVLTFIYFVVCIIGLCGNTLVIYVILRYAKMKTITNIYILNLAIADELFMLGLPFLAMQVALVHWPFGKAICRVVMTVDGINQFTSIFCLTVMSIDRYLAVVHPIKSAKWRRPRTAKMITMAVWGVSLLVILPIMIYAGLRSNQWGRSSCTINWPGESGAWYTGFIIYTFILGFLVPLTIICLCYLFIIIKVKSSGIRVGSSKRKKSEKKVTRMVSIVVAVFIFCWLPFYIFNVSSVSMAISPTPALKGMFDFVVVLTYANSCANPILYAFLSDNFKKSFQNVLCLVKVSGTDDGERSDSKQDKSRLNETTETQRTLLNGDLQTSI
Assay [7] has as its target Somatostatin receptor type 1 (Homo sapiens, UniProt P30872). The assay can be described thus: Displacement of 125I-[LTT]-SRIF-28 from human sst1 receptor in CHO cells after 2 hrs by autoradiography. Type of assay: cell-based.
Assay [8] has as its target T1, Somatostatin receptor type 3. Briefly: Partial agonist activity at human sst3 receptor expressed in CCL39 cells after 5 hrs by luciferase reporter gene assay. The assay is classed as functional, cell-based.
In assay [9] the target is Somatostatin receptor type 4 (Homo sapiens, UniProt P31391). Briefly: Displacement of 125I-[LTT]-SRIF-28 from human sst4 receptor in CCL39 cells after 2 hrs by autoradiography. Type of assay: cell-based.
Somatostatin receptor type 4, sequence (P31391 whole entry): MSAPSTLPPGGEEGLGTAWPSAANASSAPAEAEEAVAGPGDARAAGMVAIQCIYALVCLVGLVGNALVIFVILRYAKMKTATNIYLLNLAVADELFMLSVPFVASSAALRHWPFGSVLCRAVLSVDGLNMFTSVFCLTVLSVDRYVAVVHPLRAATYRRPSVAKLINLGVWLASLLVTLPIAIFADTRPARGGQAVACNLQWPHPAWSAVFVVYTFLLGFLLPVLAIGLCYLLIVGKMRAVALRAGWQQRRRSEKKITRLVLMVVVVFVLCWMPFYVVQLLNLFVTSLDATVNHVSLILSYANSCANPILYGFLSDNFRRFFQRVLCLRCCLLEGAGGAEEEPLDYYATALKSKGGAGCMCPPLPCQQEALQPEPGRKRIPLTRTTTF
Assay [10] deals with T1, Somatostatin receptor type 3. The assay can be described thus: Inhibition of somatostatin-induced sst3 receptor internalization in human HEK cells at 10 uM after 30 mins by immunofluorescence microscopy. The assay is classed as cell-based. The conditions noted are these: HEK293.
The target is the same in assay [11]. Briefly: Displacement of 125I-[LTT]-SRIF-28 from human sst3 receptor in CCL39 cells after 2 hrs by autoradiography. The assay is classed as cell-based.

The source made the active and inactive calls. The rule behind the calls is not given here. Where a SMILES comes first, the peptide text is derived from it. Bridges are numbered along the chain shown (N, C = ends). [ ]: non-standard residue; d: D form.

As usually defined, the EC50 is the concentration giving half of the maximal effect. Usually IC50 stands for the midpoint of a concentration-inhibition curve. Higher therefore signals a need for much substance.

Somatostatin receptor type 1, sequence (P30872 whole entry): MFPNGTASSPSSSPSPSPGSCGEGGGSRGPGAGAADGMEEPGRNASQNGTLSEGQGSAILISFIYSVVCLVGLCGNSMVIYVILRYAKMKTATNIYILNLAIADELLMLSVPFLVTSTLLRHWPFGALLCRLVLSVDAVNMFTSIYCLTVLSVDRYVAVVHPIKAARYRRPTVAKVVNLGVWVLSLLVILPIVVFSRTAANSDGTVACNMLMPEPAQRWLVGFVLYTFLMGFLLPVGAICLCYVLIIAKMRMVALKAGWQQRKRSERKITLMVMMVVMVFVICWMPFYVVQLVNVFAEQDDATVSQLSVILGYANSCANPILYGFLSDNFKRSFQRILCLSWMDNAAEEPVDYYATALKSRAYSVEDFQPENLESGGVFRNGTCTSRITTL
T1 sequence (P32745 whole entry): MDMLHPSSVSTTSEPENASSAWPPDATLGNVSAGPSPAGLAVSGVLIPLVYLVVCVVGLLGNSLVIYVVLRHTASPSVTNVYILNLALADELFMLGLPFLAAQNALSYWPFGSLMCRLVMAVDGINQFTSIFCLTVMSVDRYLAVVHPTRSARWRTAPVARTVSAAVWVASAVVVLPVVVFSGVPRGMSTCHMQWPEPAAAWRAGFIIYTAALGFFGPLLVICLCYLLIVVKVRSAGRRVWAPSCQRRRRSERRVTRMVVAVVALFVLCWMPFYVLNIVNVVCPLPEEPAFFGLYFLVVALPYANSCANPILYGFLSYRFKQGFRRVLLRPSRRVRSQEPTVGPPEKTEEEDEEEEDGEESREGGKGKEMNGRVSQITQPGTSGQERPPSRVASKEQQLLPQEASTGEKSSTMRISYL

Turning to `C[C@@H](O)[C@@H]1NC(=O)[C@H](CCCCN)NC(=O)[C@@H](Cc2c[nH]c3ccccc23)NC(=O)[C@H](Cc2ccccc2)NC(=O)[C@H](Cc2ccccc2)NC(=O)[C@@H](N)CSSC[C@@H](C(=O)O)NC(=O)[C@H](Cc2ccccc2)NC1=O` (H-CFF[dW]KTFC-OH; disulfide 1-8), the EC50 in [1] was 0.00333 µM. This molecule had an IC50 in assay [2] of 0.0026 µM. Also, in assay [3], the outcome was Active.
As to `C[C@@H](O)[C@@H]1NC(=O)[C@H](CCCCN)NC(=O)[C@@H](Cc2cn(Cc3ccccc3)cn2)NC(=O)[C@H](Cc2ccccc2)NC(=O)[C@H](Cc2ccccc2)NC(=O)[C@@H](N)CSSC[C@@H](C(=O)O)NC(=O)[C@H](Cc2ccccc2)NC1=O`, the result in [4] and in assay [3] was inactive. The outcome in [5] and in [10] was Active. In addition, the IC50 is greater than 1 µM in assay [6]; greater than 1 µM in [7]; greater than 1 µM in [2]; 0.59 µM in [9]; 0.075 µM in assay [11]. In addition, in assay [8], the midpoint of the response, the EC50, lay at 0.299 µM.
Take `C[C@H](N)C(=O)NCC(=O)N[C@H]1CSSC[C@@H](C(=O)O)NC(=O)[C@H](CO)NC(=O)[C@H]([C@@H](C)O)NC(=O)[C@H](Cc2ccccc2)NC(=O)[C@H]([C@@H](C)O)NC(=O)[C@H](CCCCN)NC(=O)[C@@H](Cc2cn(Cc3ccccc3)cn2)NC(=O)[C@H](Cc2ccccc2)NC(=O)[C@H](Cc2ccccc2)NC(=O)[C@H](CC(N)=O)NC(=O)[C@H](CCCCN)NC1=O`: the result in assay [5] and in [3] was Active. Also, the IC50 in assay [6] was 0.106 µM; in assay [7] it was greater than 1 µM; in assay [2], greater than 1 µM; in assay [9], greater than 1 µM; in assay [11], 0.015 µM. This molecule showed an EC50 in assay [8] of 0.041 µM.
`C[C@@H](O)[C@@H]1NC(=O)[C@H](CCCCN)NC(=O)[C@H](Cc2c[nH]c3ccccc23)NC(=O)[C@H](Cc2ccccc2)NC(=O)[C@H](Cc2ccccc2)NC(=O)[C@@H](N)CSSC[C@@H](C(=O)O)NC(=O)[C@H](Cc2ccccc2)NC1=O` (H-CFFWKTFC-OH; disulfide 1-8): the IC50 in assay [2] was found to be 0.016 µM. In addition, a half-maximal response in assay [8] (EC50) required 0.0047 µM. In assay [3], the result was Active.
Molecule `C[C@H](N)C(=O)NCC(=O)N[C@H]1CSSC[C@@H](C(=O)O)NC(=O)[C@H](CO)NC(=O)[C@H]([C@@H](C)O)NC(=O)[C@H](Cc2ccccc2)NC(=O)[C@H]([C@@H](C)O)NC(=O)[C@H](CCCCN)NC(=O)[C@@H](Cc2ccc(O)cc2)NC(=O)[C@H](Cc2ccccc2)NC(=O)[C@H](Cc2ccccc2)NC(=O)[C@H](CC(N)=O)NC(=O)[C@H](CCCCN)NC1=O` yielded an EC50 in assay [1] of 0.00087 µM. Besides, the IC50 came out at 0.0041 µM in [6]; 0.14 µM in assay [7]; 0.041 µM in [2]; 0.016 µM in assay [9]; 0.002 µM in [11]. Further, the outcome in assay [3] was Active.
In assay [1], `C[C@@H](O)[C@@H]1NC(=O)[C@H](CCCCN)NC(=O)[C@@H](Cc2ccc3ccccc3c2)NC(=O)[C@H](Cc2ccccc2)NC(=O)[C@H](Cc2ccccc2)NC(=O)[C@@H](N)CSSC[C@@H](C(=O)O)NC(=O)[C@H](Cc2ccccc2)NC1=O` showed a concentration giving a half-maximal response (EC50) of 0.00053 µM. Moreover, the IC50 in assay [6] worked out at 0.173 µM; in assay [7] it was 0.607 µM; in [2] it was 0.006 µM; in assay [9], 0.041 µM; in [11], 0.0067 µM. Also, the outcome in assay [3] was Active.
The molecule `C[C@H](N)C(=O)NCC(=O)N[C@H]1CSSC[C@@H](C(=O)O)NC(=O)[C@H](CO)NC(=O)[C@H]([C@@H](C)O)NC(=O)[C@H](Cc2ccccc2)NC(=O)[C@H]([C@@H](C)O)NC(=O)[C@H](CCCCN)NC(=O)[C@@H](Cc2ccc3ccccc3c2)NC(=O)[C@H](Cc2ccccc2)NC(=O)[C@H](Cc2ccccc2)NC(=O)[C@H](CC(N)=O)NC(=O)[C@H](CCCCN)NC1=O` had an EC50 in [1] of 0.00023 µM. In addition, the IC50 in assay [6] was found to be 0.0016 µM; in [7], 0.0041 µM; in assay [2] it was 0.0024 µM; in [9], 0.012 µM; in [11] it was 0.001 µM. Further, the result in assay [3] was Active.
As for `C[C@@H](O)[C@@H]1NC(=O)[C@H](CCCCN)NC(=O)[C@H](Cc2cn(Cc3ccccc3)cn2)NC(=O)[C@H](Cc2ccccc2)NC(=O)[C@H](Cc2ccccc2)NC(=O)[C@@H](N)CSSC[C@@H](C(=O)O)NC(=O)[C@H](Cc2ccccc2)NC1=O`, the outcome in [4] and in [3] was inactive. The outcome in [5] and in assay [10] was Active. Moreover, the concentration for half-maximal inhibition (IC50) is greater than 1 µM in assay [6]; greater than 1 µM in assay [7]; greater than 1 µM in [2]; greater than 1 µM in [9]; 0.164 µM in assay [11]. In addition, the response in [8] was half-maximal at 0.164 µM (EC50).
Molecule `C[C@H](N)C(=O)NCC(=O)N[C@H]1CSSC[C@@H](C(=O)O)NC(=O)[C@H](CO)NC(=O)[C@H]([C@@H](C)O)NC(=O)[C@H](Cc2ccccc2)NC(=O)[C@H]([C@@H](C)O)NC(=O)[C@H](CCCCN)NC(=O)[C@H](Cc2ccc(O)cc2)NC(=O)[C@H](Cc2ccccc2)NC(=O)[C@H](Cc2ccccc2)NC(=O)[C@H](CC(N)=O)NC(=O)[C@H](CCCCN)NC1=O` showed an EC50 in [1] of 0.0157 µM. In addition, the IC50 worked out at 0.035 µM in assay [6]; 0.138 µM in assay [7]; 0.556 µM in [2]; 0.025 µM in [9]; 0.013 µM in assay [11]. Also, the outcome in [3] was Active.
In assay [1], `C[C@H](N)C(=O)NCC(=O)N[C@H]1CSSC[C@@H](C(=O)O)NC(=O)[C@H](CO)NC(=O)[C@H]([C@@H](C)O)NC(=O)[C@H](Cc2ccccc2)NC(=O)[C@H]([C@@H](C)O)NC(=O)[C@H](CCCCN)NC(=O)[C@H](Cc2ccc3ccccc3c2)NC(=O)[C@H](Cc2ccccc2)NC(=O)[C@H](Cc2ccccc2)NC(=O)[C@H](CC(N)=O)NC(=O)[C@H](CCCCN)NC1=O` had an EC50 of 0.00035 µM. Moreover, the IC50 in assay [6] turned out to be 0.015 µM; in assay [7] it was 0.0027 µM; in assay [2], 0.069 µM; in [9] it was 0.012 µM; in assay [11], 0.0015 µM. Besides, the result in [3] was Active.
As to `C[C@H](N)C(=O)NCC(=O)N[C@H]1CSSC[C@@H](C(=O)O)NC(=O)[C@H](CO)NC(=O)[C@H]([C@@H](C)O)NC(=O)[C@H](Cc2ccccc2)NC(=O)[C@H]([C@@H](C)O)NC(=O)[C@H](CCCCN)NC(=O)[C@H](Cc2cn(Cc3ccccc3)cn2)NC(=O)[C@H](Cc2ccccc2)NC(=O)[C@H](Cc2ccccc2)NC(=O)[C@H](CC(N)=O)NC(=O)[C@H](CCCCN)NC1=O`, the result in [5] and in assay [3] was Active. The IC50 in assay [6] was greater than 1 µM; in assay [7], greater than 1 µM; in [2], greater than 1 µM; in assay [9] it was greater than 1 µM; in assay [11], 0.131 µM. For the same molecule, a half-maximal effect in assay [8] (EC50) was put at 0.315 µM.

These data come from ChEMBL document CHEMBL1821599 (J Med Chem, 2011).
